Results as given in patent US10577404B2, “Polypeptide derivatives from grass carp interferon and application thereof” (priority 2018, dated 2020).
Where two headings read alike, the source gives them in different places. Ends that are not written are not given here.

Experiments:
[1] = test system: red blood cells of mice; assay: Hemolytic toxicity test on erythrocytes; type: cell-based, BALB/c mice; conditions: concentration 64 μM or above
Procedure: (§1) (1) 1 ml of blood of fresh grass carp and BALB/c mice are collected respectively and stored with heparin sodium for anticoagulation.
(§2) (2) The fresh plasma solutions obtained in step (1) are centrifuged under 1000 g for 5 minutes, the supernatant is discarded, and red blood cells are collected.
(§3) (3) The collected red blood cells are washed 3 times with PBS buffer, centrifuged under 1000 g for 5 minutes each time, and finally resuspended in 5 ml of PBS buffer.
(§4) 50 μl PBS+50 μl red blood cell suspension is used as a negative control, and 50 μl of red blood cell suspension+50 μl of 0.2% Triton X-100 is used as a positive control.
(§5) (6) After 1 hour, the 96-well plate is taken out, and centrifuged under 1000 g for 5 minutes at 4° C.
(§6) (7) The supernatant of the above-mentioned centrifuged solutions is taken and placed on a clean 96-well plate again, and then absorbance is measured at 570 nm with a microplate reader.
(§7) (8) The average values of all the groups are compared and analyzed. The test is repeated three times. Calculation formula: Hemolysis rate=(absorbance of experimental group−absorbance of negative group)/(absorbance of positive group−absorbance of negative group)×100%. (9)

[2] = test system: grass carp CIK cells; assay: Cytotoxicity test (MTT method); type: cell-based; conditions: final concentration 128 μM, 24 hours
Description: (§8) Cytotoxicity test of the interferon-derived polypeptide on human HEK293T cells and grass carp CIK cells:
(§9) The MTT method, also known as the MTT colorimetric method, is a method for measuring cell proliferation and cell survival rate. The detection principle is that the […] in the living cell mitochondria can reduce the exogenous MTT to a water-insoluble blue-purple crystalline Formazan which deposits in the cells, while the dead cells have no such function. DMSO can dissolve Formazan in the cells, and through measuring its absorbance by using an enzyme-linked immunosorbent detector at a wavelength of 492 nm, the number of living cells can be reflected indirectly. Within a certain range of the number of cells, the amount of the formed MTT crystal is proportional to the number of cells.
(§10) (1) Cell preparation: A human HEK293T cell line and grass carp CIK cell line preserved in liquid nitrogen are resuscitated and cultured in DMEM containing 10% fetal bovine serum under the conditions of 37° C./28° C., 5% CO2, and saturated humidity. The culture solution is changed every other day, and the cell passage is carried out by trypsinization. When 80%-90% of the bottom of the flask is covered with cells, the cells are washed twice with PBS, 2 ml of 0.25% trypsin digestive juice is added, and the degree of digestion is observed under an inverted microscope; when most of the cells are rounded and the cells are in loose connection, it indicates moderate digestion and this process is about 3 minutes; the digestion is terminated by adding a DMEM or MEM medium containing fetal bovine serum, the digestive juice is poured off, and about 3 ml of the cell culture solution is added to thoroughly blow the cells to form a single cell suspension. Finally, the diluted cell suspension is added to a 96-well plate, and 50 μl of the diluted cell suspension is added to each well at a concentration of about 1×10^4 cells/well.
(§11) The cell wells without the interferon-derived polypeptide are used as positive control, and the cell well with the interferon-derived polypeptide but without the cells are used as negative control, and the culture is further continued for 24 hours.
(§12) (3) Reading: After culture for a certain period of time, […] (5 mg/ml) of MTT is directly added to each well, and after culture for 4 hours, 150 μl of DMSO is added and vibration is carried out for 10 minutes to dissolve the crystal, and the absorbance is then measured at 492 nm by the enzyme-linked immunosorbent detector. The test is repeated three times.
(§13) Survival rate=(absorbance of experimental group−absorbance of negative group)/(absorbance of positive group−absorbance of negative group)×100%. (5)

[3] = test system: red blood cells of grass carp; assay: Hemolytic toxicity test on erythrocytes; type: cell-based; conditions: concentration 64 μM or above
Procedure: as §1, §2, §3, §4, §5, §6, §7

[4] = Toxicity of the drug to mice without bacterial infection (safe dose); type: in vivo; conditions: intraperitoneal injection, no bacterial infection
Procedure: First, an appropriate drug treatment dose is selected through pre-tests, and an appropriate drug dose concentration is found through 3-5 different drug dose concentration groups. In addition, the toxicity of the drug to mice should be tested so as to preliminarily evaluate the safety of the drug, that is, in the absence of bacterial infection, only the mice are intraperitoneally injected with the interferon-derived polypeptide drug, and the safe dose range is <200 μg/head.

[5] = Cytotoxicity test (MTT method); type: cell-based
Description: as §8, §9, §10, §11, §12, §13

[6] = test system: human HEK293T cells; assay: Cytotoxicity test (MTT method); type: cell-based; conditions: 24 h, 128 µM
Description: as §8, §9, §10, §11, §12, §13

[7] = human, HEK293T cells, Survival rate of cells

Row | Compound | hemolytic toxicity (in words) [1] | Survival rate of cells [2] [%] | hemolytic toxicity (in words) [3] | safe dose range [4] [μg/head] | viability at 24 h, 8 µM ([5]; CIK cells, grass carp CIK, final concentration 8 μM, read-out: Survival rate of cells) [%] | viability at 24 h, 16 µM ([5]; CIK cells, grass carp CIK, final concentration 16 μM, read-out: Survival rate of cells) [%] | viability at 24 h, 32 µM ([5]; CIK cells, grass carp CIK, final concentration 32 μM, read-out: Survival rate of cells) [%] | viability at 24 h, 64 µM ([5]; CIK cells, grass carp CIK, final concentration 64 μM, read-out: Survival rate of cells) [%] | viability at 24 h, 128 µM ([5]; CIK cells, grass carp CIK, final concentration 128 μM, read-out: Survival rate of cells) [%] | viability at 24 h, 8 µM [5, 7] [%] | viability at 24 h, 16 µM [5, 7] [%] | viability at 24 h, 32 µM [5, 7] [%] | viability at 24 h, 64 µM [5, 7] [%] | viability at 24 h, 128 µM [5, 7] [%] | Survival rate of cells [6] [%]
1 | CC[C@H](C)[C@H](NC(=O)[C@H](CCCCN)NC(=O)[C@H](CCC(=O)O)NC(=O)[C@H](CCCCN)NC(=O)[C@H](CO)NC(=O)[C@H](CCCCN)NC(=O)[C@H](CCCNC(=N)N)NC(=O)[C@H](Cc1ccccc1)NC(=O)[C@H](Cc1ccccc1)NC(=O)[C@H](CC(=O)O)NC(=O)CNC(=O)[C@H](CC(C)C)NC(=O)[C@@H](N)CC(C)C)C(=O)NCC(=O)N[C@@H](CCCCN)C(=O)N[C@@H](CCC(=O)O)C(=O)N[C@@H](Cc1ccccc1)C(=O)N[C@@H](CCCCN)C(=O)N[C@@H](CCCNC(=N)N)C(=O)N[C@H](C(=O)N[C@H](C(=O)N[C@@H](CCC(N)=O)C(=O)N[C@@H](CCCNC(=N)N)C(=O)N[C@H](C(=O)N[C@@H](CCCCN)C(=O)N[C@@H](CC(=O)O)C(=O)N[C@@H](Cc1ccccc1)C(=O)N[C@@H](CC(C)C)C(=O)N[C@@H](CCCNC(=N)N)C(=O)N[C@@H](CC(N)=O)C(=O)N[C@@H](CC(C)C)C(=O)N[C@H](C(=O)N1CCC[C@H]1C(=O)N[C@@H](CCCNC(=N)N)C(=O)N[C@H](C(=O)N[C@@H](CCC(=O)O)C(=O)N[C@@H](CO)C(=O)O)[C@@H](C)O)C(C)C)[C@@H](C)CC)C(C)C)[C@@H](C)CC [LL37] | obvious | 15 | obvious |  |  |  |  |  |  |  |  |  |  |  | 
2 | SYEKKINRHFKILKKNLKKK [Interferon-derived polypeptide] |  | 81 |  | < 200 | 95.4 | 96.7 | 95.2 | 87 | > 80 | 98.3 | 97.2 | 93 | 89 | > 80 | 83
